Test results as given in PMC12467512, “Pharmacological Characterization of the Novel CRF1 Receptor Antagonist, Thiazolo[4,5-d] Pyrimidine Analog, M43” (Biomolecules, 2025).

Target: T1, CRF1R (type 1 receptor for the corticotropin-releasing factor) (Homo sapiens, UniProt P34998)
T1 construct: gene CRHR1
T1 sequence (P34998 24-415): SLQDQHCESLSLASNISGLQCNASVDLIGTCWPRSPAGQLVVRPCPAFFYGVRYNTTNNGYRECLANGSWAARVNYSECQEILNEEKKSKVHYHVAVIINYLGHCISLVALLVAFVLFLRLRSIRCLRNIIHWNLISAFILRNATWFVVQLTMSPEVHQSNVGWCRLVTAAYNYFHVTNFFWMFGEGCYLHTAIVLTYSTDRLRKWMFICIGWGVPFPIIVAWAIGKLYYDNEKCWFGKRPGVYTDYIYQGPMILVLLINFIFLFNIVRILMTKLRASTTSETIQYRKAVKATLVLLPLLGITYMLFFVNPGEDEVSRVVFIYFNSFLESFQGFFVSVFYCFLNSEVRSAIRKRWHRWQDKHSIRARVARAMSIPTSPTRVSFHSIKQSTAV
Assay: inhibition of cAMP accumulation stimulated by […] Tyr0-sauvagine in HEK […] cells stably expressing human CRF1R; also […] shift of agonist potency at […] M43
Type: cell-based

- IC50: 43.5 nM
SMILES: CCCCN(CC)c1nc(C)nc2c1s/c(=N\O)n2-c1c(Cl)cc(Cl)cc1Cl [M43]
